Earlier results on 1 compound are cited in US20240082270A1 (priority 2021, published 2024).

Data set [1] relates to mouse bladder. The conditions noted are these: induced by acetylcholine.
In data set [2] the test system is human bladder.
The conditions of data set [3]: dog, 2 weeks of high twice daily dosing.
Data set [4] concerns methicillin resistant Staphylococcus aureus (MRSA).
For data set [5] the following is noted: mouse, in vivo.
The conditions of data set [6]: rat, in vivo.
For data set [7] the following is noted: animal studies.
The conditions of data set [8]: mouse, in vivo. The source holds these as a separate data set.

Like-named read-outs stand apart in the source and are kept apart here.

On to `CCCCCc1cc(O)c(C/C=C(\C)CCC=C(C)C)c(O)c1` [CBG, cannabigerol], for which the “ranked potency of detrusor contraction inhibition” value in data set [1] is on record as “CBG=THCV>CBD>CBDV, but not CBC”. The bioavailability is recorded as 13-19% (oral ingestion), 13-56% (sublingual administration) and 5-10% (topical applications). In addition, in data set [2], the acetylcholine-induced contractions entry is “reduce acetylcholine-induced contractions”. The “adverse effects monitored by blood testing” value in data set [3] is listed as “no adverse effects”. Further, the “efficacy in murine systemic infection model” value in [4] (MRSA) was “demonstrate in vivo efficacy”. Besides, in data set [4] (mouse, in vivo), the MRSA biofilm formation result was “represses MRSA biofilm formation”. For the same compound, the “effect on hyperthermia-induced seizures” value in data set [5] was “Neither CBG nor CBGV affected thresholds”. In data set [6], the appetite result is “increased appetite”. In data set [7], the “time of peak brain concentrations” value was 2 h. Further, the rotarod performance result in data set [8] is given as “significantly recovered their rotarod performance”.
